Test results reported in patent US20160280641A1, “Method for refining 2-nito-4-methylsulfonyl benzoic acid and intermediate thereof” (priority 2013, published 2016).

Experiment: Ames test of mesotrione products
Type: cell-based
Conditions: mesotrione products made from the fine 2-nitro-4-methylsulfonyl benzoic acids obtained by different processes
Protocol: The fine 2-nitro-4-methylsulfonyl benzoic acids obtained by different processes are transformed into mesotrione products, and activities thereof are tested in Ames tests, wherein Ames responses are negative.

Structure (SMILES): CS(=O)(=O)c1ccc(C(=O)C2C(=O)CCCC2=O)c([N+](=O)[O-])c1 [mesotrione, 2-(4-methanesulfonyl-2-nitrobenzoyl)-1,3-cyclohexanedione]
- Ames responses: negative
